Laboratory results: patent publication US20250241901A1, “ACTIVATION OF MNRR1 / CHCHD2 AS A THERAPEUTIC TARGET FOR MITOCHONDRIA ASSOCIATED DISORDERS” (Wayne State University, priority 2024, published 2025)

How the values were obtained:
[1] = system: MNRR1; experiment: MNRR1 transcript and protein levels in decidua and placenta of LPS-injected dams; format: in vivo, mouse
Procedure: FIGS. 2A-2F. Nitazoxanide prevents preterm delivery and improves neonatal mortality in vivo. (FIG. 2A) Schematic illustration depicting the administration of nitazoxanide (marketed under the commercial name Alinia) and LPS in the murine model of preterm birth. (FIG. 2B) Gestational length of mice was obtained using video-monitoring until delivery (n=6-8 animals). (FIG. 2C) Neonatal mortality was determined by calculating the number of dead pups over total litter size (n=6-8 animals). […] No pups from LPS-injected dams survived beyond week 0 of birth. (FIG. 2E) MNRR1 transcript levels were measured in mouse decidual tissue (17.5 dpc). Actin was used as a housekeeping gene to normalize expression (n=4 animals for all except PBS+N, where n=3). (FIG. 2F) Equal amounts of whole placental lysates were separated on an SDS-PAGE gel and probed for MNRR1 levels. Actin was used as a loading control. Gel is representative of data obtained from 2 animals. […]
Real-time polymerase chain reaction: Total cellular RNA was extracted from mouse placental tissues or HTR8 cells by using a RNeasy Plus Mini Kit (Qiagen, Germantown, MD, USA), according to the manufacturer's instructions. […] Transcript levels were measured by real-time PCR by using SYBR green on an ABI 7500 system. […]

[2] = single dose of 4 gm, adult humans; cited from earlier work
[3] = in cells; cited from earlier work
[4] = system: MELAS patient fibroblasts; experiment: Oxygen consumption and mitochondrial ATP rate in MELAS patient fibroblasts; format: cell-based, human; conditions: 10 μM, 48 h
Procedure: FIGS. 8A-8D: MNRR1 activation using tizoxanide enhances mitochondrial function, mitophagy, and protects from LPS-induced inflammation in MELAS patient fibroblasts. FIG. 8A: Equal amounts of lysates from MELAS patient fibroblast (MF 1, 2, or 3) lysates treated with vehicle (DMSO) or tizoxanide (10 μM) for 48 h were separated on an SDS-PAGE gel and probed for LC3B, PGC1a, MNRR1, MTCO2, TOM20, and phospho-ubiquitin (S65) levels. GAPDH orTubulin was probed as a loading control. FIG. 8B: Oxygen consumption measured from MELAS patient fibroblasts treated with vehicle (DMSO) or tizoxanide (10 μM) for 48 h (n=4 biological replicates, mean±SE). FIG. 8C: Mitochondrial ATP rate measured in MELAS patient fibroblasts treated with vehicle (DMSO) or tizoxanide (10 μM) for 48 h (n=4 biological replicates, mean±SE). FIG. 8D: Heatmap representation of ROS and TNFα transcript levels from MELAS patient fibroblasts treated with vehicle (DMSO), LPS (DMSO+500 ng/mL LPS), or LPS plus tizoxanide (10 μM tizoxanide+500 ng/mL LPS) for 24 h (n=4 biological replicates). […]
Intact cellular oxygen consumption and measurement of ATP: Cellular oxygen consumption was measured with a Seahorse XFe24 Bioanalyzer (Agilent). Cells were plated at a concentration of 3.5×10^4 per well a day prior to treatment and basal oxygen consumption was measured 48 h after treatments, as described. […]

[5] = system: MELAS patient fibroblasts; experiment: LPS-induced ROS and TNF levels in MELAS patient fibroblasts; format: cell-based, human; conditions: 10 μM + 500 ng/mL LPS, 24 h
Procedure: FIGS. 8A-8D: MNRR1 activation using tizoxanide enhances mitochondrial function, mitophagy, and protects from LPS-induced inflammation in MELAS patient fibroblasts. FIG. 8A: Equal amounts of lysates from MELAS patient fibroblast (MF 1, 2, or 3) lysates treated with vehicle (DMSO) or tizoxanide (10 μM) for 48 h were separated on an SDS-PAGE gel and probed for LC3B, PGC1a, MNRR1, MTCO2, TOM20, and phospho-ubiquitin (S65) levels. GAPDH orTubulin was probed as a loading control. FIG. 8B: Oxygen consumption measured from MELAS patient fibroblasts treated with vehicle (DMSO) or tizoxanide (10 μM) for 48 h (n=4 biological replicates, mean±SE). FIG. 8C: Mitochondrial ATP rate measured in MELAS patient fibroblasts treated with vehicle (DMSO) or tizoxanide (10 μM) for 48 h (n=4 biological replicates, mean±SE). FIG. 8D: Heatmap representation of ROS and TNFα transcript levels from MELAS patient fibroblasts treated with vehicle (DMSO), LPS (DMSO+500 ng/mL LPS), or LPS plus tizoxanide (10 μM tizoxanide+500 ng/mL LPS) for 24 h (n=4 biological replicates). In all figures, * indicates p<0.05, ** indicates p<0.005.
ROS measurements: Total cellular ROS measurements were performed with CM-H2DCFDA (Life Technologies). […] Cells were washed twice in phosphate buffered saline and analyzed for fluorescence on a BioTek Synergy H1 Microplate Reader (Agilent).

SMILES	MNRR1 transcript level in the decidua ([1]; 17.5 dpc)	MNRR1 protein level in the placenta ([1]; whole placental lysates)	adverse effects [2]	fraction metabolized to tizoxanide [3] [%]	OCR [4]	mitochondrial ATP levels [4]	LPS-induced pro-inflammatory response (ROS and TNF levels) [5]
CC(=O)Oc1ccccc1C(=O)Nc1ncc([N+](=O)[O-])s1 [nitazoxanide, Nitazoxanide]	restored the LPS-induced reduction of MNRR1	restored the LPS-induced reduction of MNRR1	did not result in any adverse effects	> 97	–	–	–
O=C(Nc1ncc([N+](=O)[O-])s1)c1ccccc1O [tizoxanide, Tizoxanide]	–	–	–	–	enhanced	enhanced	blocked
